In patent publication US20040038965A1, “Protease inhibitors” (priority 2003, published 2004):

Columns and labels:
[1] = system: PTH stimulated bone resorption; details: mouse calvariae; cited from earlier work
[2] = system: bone resorption; details: mouse bone organ culture; cited from earlier work
[3] = biological target: human Cathepsin L (Homo sapiens, UniProt P07711); test: Cathepsin L inhibition, progress curve method; assay type: biochemical
Experimental: (§1) Potential inhibitors were evaluated using the progress curve method. Assays were carried out in the presence of variable concentrations of test compound. Reactions were initiated by addition of enzyme to buffered solutions of inhibitor and substrate. Data analysis was conducted according to one of two procedures depending on the appearance of the progress curves in the presence of inhibitors. For those-compounds whose progress curves were linear, apparent inhibition constants (Ki,app) were calculated according to equation 1 (Brandt et al., Biochemitsry, 1989, 28, 140):
(§2) v=VmA/[Ka(1+1/Ki, app)+A] (1)
(§3) where v is the velocity of the reaction with maximal velocity Vm, A is the concentration of substrate with Michaelis constant of Ka, and I is the concentration of inhibitor.

[4] = biological target: T1, human Cathepsin K (Homo sapiens, UniProt P43235); test: Cathepsin K inhibition, fluorogenic peptide substrate, progress curve method; assay type: biochemical; details: human recombinant enzyme, pH 5.5
T1 sequence (P43235 115-329): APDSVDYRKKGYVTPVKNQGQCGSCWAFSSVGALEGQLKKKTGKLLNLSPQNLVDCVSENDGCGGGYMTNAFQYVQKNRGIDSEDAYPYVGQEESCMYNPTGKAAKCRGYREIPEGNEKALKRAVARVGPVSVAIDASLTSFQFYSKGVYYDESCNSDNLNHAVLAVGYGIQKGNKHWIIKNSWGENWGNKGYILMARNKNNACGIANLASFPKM
Experimental: Determination of Cathepsin K Proteolytic Catalytic Activity
All assays for cathepsin K were carried out with human recombinant enzyme. Standard assay conditions for the determination of kinetic constants used a fluorogenic peptide substrate, typically Cbz-Phe-Arg-AMC, and were determined in […] Na acetate at pH 5.5 containing 20 mM cysteine and 5 mM EDTA. Stock substrate solutions were prepared at concentrations of 10 or 20 mM in DMSO with 20 uM final substrate concentration in the assays. All assays contained 10% DMSO. […] All assays were conducted at ambient temperature. Product fluorescence (excitation at 360 nm; emission at 460 nm) was monitored with a Perceptive Biosystems Cytofluor II fluorescent plate reader. Product progress curves were generated over 20 to 30 minutes following formation of AMC product.
as §1, with “140): […]” for “140):”
v=VmA/[Ka(1+[…])+A] (1) where v is the velocity of the reaction with maximal velocity Vm, A is the concentration of substrate with Michaelis constant of Ka, and I is the concentration of inhibitor.
[AMC]=vsst+(v0−vss)[1−exp(−kobst)]]/kobs (2) where [AMC] is the concentration of product formed over time t, v0 is the initial reaction velocity and vss is the final steady state rate. Values for kobs were then analyzed as a linear function of inhibitor concentration to generate an apparent second order rate constant (kobs/inhibitor concentration or kobs/[I]) describing the time-dependent inhibition. A complete discussion of this kinetic treatment has been fully described (Morrison et al., Adv. Enzymol. Relat. Areas Mol. Biol., 1988, 61, 201).

[5] = biological target: human Cathepsin S (Homo sapiens, UniProt P25774); test: Cathepsin S inhibition, progress curve method; assay type: biochemical
Experimental: as §1, §2, §3

[6] = biological target: human Cathepsin B (Homo sapiens, UniProt P07858); test: Cathepsin B inhibition, progress curve method; assay type: biochemical
Experimental: as §1, §2, §3

[7] = system: bone resorption; details: rats on calcium deficient diets, serum calcium; cited from earlier work

human Cathepsin L, sequence (P07711 114-333): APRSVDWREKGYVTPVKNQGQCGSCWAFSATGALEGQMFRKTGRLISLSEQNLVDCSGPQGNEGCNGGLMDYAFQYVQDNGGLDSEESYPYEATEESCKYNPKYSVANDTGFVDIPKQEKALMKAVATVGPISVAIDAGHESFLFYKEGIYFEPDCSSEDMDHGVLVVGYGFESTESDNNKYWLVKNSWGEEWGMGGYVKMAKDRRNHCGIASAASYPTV
human Cathepsin S, sequence (P25774 115-331): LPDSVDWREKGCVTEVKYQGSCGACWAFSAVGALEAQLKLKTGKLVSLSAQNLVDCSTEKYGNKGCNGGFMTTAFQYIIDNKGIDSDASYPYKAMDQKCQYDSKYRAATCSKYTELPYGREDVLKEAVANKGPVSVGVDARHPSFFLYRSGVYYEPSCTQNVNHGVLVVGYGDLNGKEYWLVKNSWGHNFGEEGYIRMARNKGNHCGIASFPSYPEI

| Ki [3] | Ki [4] | Ki [5] | Ki [6] | Molecule | other results |
| --- | --- | --- | --- | --- | --- |
|  |  |  |  | cystatin | inhibition of PTH stimulated bone resorption [1]: inhibits PTH stimulated bone resorption |
|  |  |  |  | C[C@H](NC(=O)[C@H](Cc1ccccc1)NC(=O)OCc1ccccc1)C(=O)C=[N+]=[N-] [Z-Phe-Ala-CHN2] | prevention of bone resorption [2]: prevent bone resorption |
| 270 nM | 0.58 nM | 632 nM | 434 nM | O=C(NC1(C(=O)N[C@H]2CCCN(S(=O)(=O)c3ccccn3)CC2=O)CCCCC1)c1cc2sccc2s1 (racemic) [Example 2, Thieno[3,2-b]thiophene-2-carboxylic Acid {1-[(+/−)-3-oxo-1-(pyridine-2-sulfonyl)-azepan-4-ylcarbamorl]-cyclohexyl}-amide] |  |
|  | > 26 nM |  |  | O=C(NC1(C(=O)N[C@@H]2CCCN(S(=O)(=O)c3ccccn3)CC2=O)CCCCC1)c1cc2ccccc2o1 [Example 1 (R), Benzofuran-2-carboxylic acid {1-[(R)-3-oxo-1-(pyridine-2-sulfonyl)-azepan-4-ylcarbamoyl]-cyclohexyl}-amide] |  |
| 69 nM | 0.3 nM | 175 nM | 173 nM | C[C@@H]1CC[C@H](NC(=O)C2(NC(=O)c3cc4sccc4s3)CCCCC2)C(=O)CN1S(=O)(=O)c1ccccn1 [Example 5, Thieno[3,2-b]thiophene-2-carboxylic Acid {1-[(4S,7R)-7-methyl-3-oxo-1-(pyridine-2-sulfonyl)-azepan-4-ylcarbamoyl]-cyclohexyl}-amide] |  |
|  |  |  |  | CC(=O)N[C@@H](CC(C)C)C(=O)N[C@@H](CC(C)C)C(=O)N[C@H](C=O)CCCNC(=N)N [leupeptin] | prevention of bone resorption [2]: prevent bone resorption; prevention of bone resorption in vivo [7]: effective at preventing bone resorption in vivo |
|  |  |  |  | CC(C)C[C@H](NC(=O)[C@H]1O[C@@H]1C(=O)O)C(=O)NCCCCN=C(N)N [Example E-64, E-64] | prevention of bone resorption in vivo [7]: effective at preventing bone resorption in vivo |
| 239 nM | 1.4 nM | 390 nM | 926 nM | O=C(NC1(C(=O)N[C@H]2CCCN(S(=O)(=O)c3ccccn3)CC2=O)CCCCC1)c1cc2ccccc2o1 [Example 1, Benzofaran-2-carboxylic Acid {1-[(S)-3-oxo-1-(pyridine-2-sulfonel)-azepan-4-ylcarbamoyl]-cyclohexyl}-amide] |  |
